# Data taken from PubChem BioAssay (NCI).
#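 Growth conditions: 96-well plates. Treatment: test compound, 48 hours, 5 concentrations. Analysis: linear interpolation between bracketing concentrations; unreached endpoints set to highest concentration. GI50 = concentration required for 50% inhibition of growth. TGI denotes the concentration required for complete inhibition of growth.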
# What was measured:
# Assay in all cases: DTP human tumour cell line panel, 48 h
# OVCAR-3 ovarian = system: OVCAR-3 ovarian
# A498 renal = system: A498 renal
# NCI/ADR-RES ovarian = system: NCI/ADR-RES ovarian
# MOLT-4 leukemia = system: MOLT-4 leukemia
# HL-60(TB) leukemia = system: HL-60(TB) leukemia
# DU-145 prostate = system: DU-145 prostate
# HT29 colon = system: HT29 colon
# HCC-2998 colon = system: HCC-2998 colon
# NCI-H460 lung = system: NCI-H460 lung
# SN12C renal = system: SN12C renal
# SNB-75 CNS = system: SNB-75 CNS
# OVCAR-8 ovarian = system: OVCAR-8 ovarian
# SF-295 CNS = system: SF-295 CNS
# K-562 leukemia = system: K-562 leukemia
# A549 NSCLC = system: A549 NSCLC
# NCI-H23 lung = system: NCI-H23 lung
# HCT-116 colon = system: HCT-116 colon
# MDA-MB-435 = system: MDA-MB-435
# NCI-H226 lung = system: NCI-H226 lung
# TK-10 renal = system: TK-10 renal
# SK-MEL-2 melanoma = system: SK-MEL-2 melanoma
# EKVX NSCLC = system: EKVX NSCLC
# PC-3 prostate = system: PC-3 prostate
# SR leukemia = system: SR leukemia
# HOP-92 NSCLC = system: HOP-92 NSCLC
# IGROV1 ovarian = system: IGROV1 ovarian
# MALME-3M melanoma = system: MALME-3M melanoma
# LOX IMVI melanoma = system: LOX IMVI melanoma
# CCRF-CEM leukemia = system: CCRF-CEM leukemia
# UO-31 renal = system: UO-31 renal
# CAKI-1 renal = system: CAKI-1 renal
# SF-539 CNS = system: SF-539 CNS
# SK-MEL-28 melanoma = system: SK-MEL-28 melanoma
# MDA-MB-231 breast = system: MDA-MB-231 breast
# SW-620 colon = system: SW-620 colon
# UACC-62 melanoma = system: UACC-62 melanoma
# UACC-257 melanoma = system: UACC-257 melanoma
# ACHN renal = system: ACHN renal
# OVCAR-5 ovarian = system: OVCAR-5 ovarian
# U251 CNS = system: U251 CNS
# HCT-15 colon = system: HCT-15 colon
# SK-MEL-5 melanoma = system: SK-MEL-5 melanoma
# HS 578T breast = system: HS 578T breast
# OVCAR-4 ovarian = system: OVCAR-4 ovarian
# RXF 393 renal = system: RXF 393 renal
# NCI-H522 lung = system: NCI-H522 lung
# BT-549 breast = system: BT-549 breast
# HOP-62 NSCLC = system: HOP-62 NSCLC
# KM12 colon = system: KM12 colon
# SF-268 CNS = system: SF-268 CNS
# RPMI-8226 leukemia = system: RPMI-8226 leukemia
# MCF7 breast = system: MCF7 breast
smiles,measurement,setting,value
COC(=O)C(C)NP(=O)(OCc1cccc(Cn2cnc3c(N)ncnc32)c1)Oc1ccccc1 (centres undefined),GI50,OVCAR-3 ovarian,43 µM
same,TGI,OVCAR-3 ovarian,> 100 µM
same,GI50,A498 renal,> 100 µM
same,TGI,A498 renal,> 100 µM
same,GI50,NCI/ADR-RES ovarian,> 100 µM
same,TGI,NCI/ADR-RES ovarian,> 100 µM
same,GI50,MOLT-4 leukemia,38.3 µM
same,TGI,MOLT-4 leukemia,> 100 µM
same,GI50,HL-60(TB) leukemia,46.8 µM
same,TGI,HL-60(TB) leukemia,> 100 µM
same,GI50,DU-145 prostate,> 100 µM
same,TGI,DU-145 prostate,> 100 µM
same,GI50,HT29 colon,> 100 µM
same,TGI,HT29 colon,> 100 µM
same,GI50,HCC-2998 colon,10.9 µM
same,TGI,HCC-2998 colon,53.7 µM
same,GI50,NCI-H460 lung,> 100 µM
same,TGI,NCI-H460 lung,> 100 µM
same,GI50,SN12C renal,> 100 µM
same,TGI,SN12C renal,> 100 µM
same,GI50,SNB-75 CNS,> 100 µM
same,TGI,SNB-75 CNS,> 100 µM
same,GI50,OVCAR-8 ovarian,> 100 µM
same,TGI,OVCAR-8 ovarian,> 100 µM
same,GI50,SF-295 CNS,> 100 µM
same,TGI,SF-295 CNS,> 100 µM
same,GI50,K-562 leukemia,> 100 µM
same,TGI,K-562 leukemia,> 100 µM
same,GI50,A549 NSCLC,> 100 µM
same,TGI,A549 NSCLC,> 100 µM
same,GI50,NCI-H23 lung,66 µM
same,TGI,NCI-H23 lung,> 100 µM
same,GI50,HCT-116 colon,47 µM
same,TGI,HCT-116 colon,> 100 µM
same,GI50,MDA-MB-435,> 100 µM
same,TGI,MDA-MB-435,> 100 µM
same,GI50,NCI-H226 lung,> 100 µM
same,TGI,NCI-H226 lung,> 100 µM
same,GI50,TK-10 renal,> 100 µM
same,TGI,TK-10 renal,> 100 µM
same,GI50,SK-MEL-2 melanoma,> 100 µM
same,TGI,SK-MEL-2 melanoma,> 100 µM
same,GI50,EKVX NSCLC,> 100 µM
same,TGI,EKVX NSCLC,> 100 µM
same,GI50,PC-3 prostate,> 100 µM
same,TGI,PC-3 prostate,> 100 µM
same,GI50,SR leukemia,55.4 µM
same,TGI,SR leukemia,> 100 µM
same,GI50,HOP-92 NSCLC,54.1 µM
same,TGI,HOP-92 NSCLC,> 100 µM
same,GI50,IGROV1 ovarian,> 100 µM
same,TGI,IGROV1 ovarian,> 100 µM
same,GI50,MALME-3M melanoma,68.2 µM
same,TGI,MALME-3M melanoma,> 100 µM
same,GI50,LOX IMVI melanoma,48.9 µM
same,TGI,LOX IMVI melanoma,> 100 µM
same,GI50,CCRF-CEM leukemia,50.5 µM
same,TGI,CCRF-CEM leukemia,> 100 µM
same,GI50,UO-31 renal,> 100 µM
same,TGI,UO-31 renal,> 100 µM
same,GI50,CAKI-1 renal,> 100 µM
same,TGI,CAKI-1 renal,> 100 µM
same,GI50,SF-539 CNS,> 100 µM
same,TGI,SF-539 CNS,> 100 µM
same,GI50,SK-MEL-28 melanoma,> 100 µM
same,TGI,SK-MEL-28 melanoma,> 100 µM
same,GI50,MDA-MB-231 breast,51.7 µM
same,TGI,MDA-MB-231 breast,> 100 µM
same,GI50,SW-620 colon,> 100 µM
same,TGI,SW-620 colon,> 100 µM
same,GI50,UACC-62 melanoma,56.3 µM
same,TGI,UACC-62 melanoma,> 100 µM
same,GI50,UACC-257 melanoma,> 100 µM
same,TGI,UACC-257 melanoma,> 100 µM
same,GI50,ACHN renal,> 100 µM
same,TGI,ACHN renal,> 100 µM
same,GI50,OVCAR-5 ovarian,> 100 µM
same,TGI,OVCAR-5 ovarian,> 100 µM
same,GI50,U251 CNS,> 100 µM
same,TGI,U251 CNS,> 100 µM
same,GI50,HCT-15 colon,> 100 µM
same,TGI,HCT-15 colon,> 100 µM
same,GI50,SK-MEL-5 melanoma,54.1 µM
same,TGI,SK-MEL-5 melanoma,> 100 µM
same,GI50,HS 578T breast,32.8 µM
same,TGI,HS 578T breast,> 100 µM
same,GI50,OVCAR-4 ovarian,> 100 µM
same,TGI,OVCAR-4 ovarian,> 100 µM
same,GI50,RXF 393 renal,27.8 µM
same,TGI,RXF 393 renal,> 100 µM
same,GI50,NCI-H522 lung,36 µM
same,TGI,NCI-H522 lung,> 100 µM
same,GI50,BT-549 breast,> 100 µM
same,TGI,BT-549 breast,> 100 µM
same,GI50,HOP-62 NSCLC,> 100 µM
same,TGI,HOP-62 NSCLC,> 100 µM
same,GI50,KM12 colon,68.2 µM
same,TGI,KM12 colon,> 100 µM
same,GI50,SF-268 CNS,58.4 µM
same,TGI,SF-268 CNS,> 100 µM
same,GI50,RPMI-8226 leukemia,> 100 µM
same,TGI,RPMI-8226 leukemia,> 100 µM
same,GI50,MCF7 breast,14.9 µM
same,TGI,MCF7 breast,66.6 µM
